The numbers were not newly measured in patent US6921495B2, “Environmentally compatible defrosting and antifreeze agents for aeroplanes” (Clariant GmbH, priority 2001, dated 2005), which cites them from elsewhere.

Where two headings read alike, the source gives them in different places.

Consider `c1ccc2[nH]nnc2c1` [benzotriazole], for which the LD50 oral rat with rat (in vivo, po) is listed as 560 mg/kg. Also, in the data set with Brachydanio rerio (Brachydanio rerio), the “LCO in Brachydanio rerio” value was 100 mg/L.

With Tolyltriazole, the LD50 oral rat in the data set on rat (oral) is given as 675 mg/kg. In addition, in the data set with Brachydanio rerio (in vivo), the “LCO in Brachydanio rerio” value is 42.2 mg/L.
